These results are taken from ChEMBL document CHEMBL1130721, “Design and synthesis of novel conformationally restricted HIV protease inhibitors” (Bioorg Med Chem Lett, 1998).

For the test, the target named is Human immunodeficiency virus type 1 protease (Human immunodeficiency virus 1, UniProt Q72874). As to the kind of experiment: Compound was assayed for inhibition against HIV protease activity.

For the compound `COc1ccc(S(=O)(=O)N(CC2CCCC2)C[C@@H](O)CN2C(=O)N(Cc3ccccc3)C[C@@H]2Cc2ccccc2)cc1`, the affinity corresponds to a Ki of 15 nM.
To `COc1ccc(S(=O)(=O)N(CC2CCCC2)C[C@@H](O)CN2C(=O)CNC[C@@H]2Cc2ccccc2)cc1` belongs 3000 nM; to `COc1ccc(S(=O)(=O)N(CC2CCCC2)C[C@@H](O)CN2C(=O)OC[C@@H]2Cc2ccccc2)cc1`, 1500 nM; to `COc1ccc(S(=O)(=O)N(CC2CCCC2)C[C@@H](O)CN2C(=O)[C@@H](Cc3ccccc3)C[C@@H]2Cc2ccccc2)cc1`, 0.5 nM.
The result for `COc1ccc(S(=O)(=O)N(CC2CCCC2)C[C@@H](O)CN2C(=O)COC[C@@H]2Cc2ccccc2)cc1` reads 1000 nM; that for `COc1ccc(S(=O)(=O)N(CC2CCCC2)C[C@@H](O)CN2C(=O)C3(CCCCC3)NC[C@@H]2Cc2ccccc2)cc1`, 17 nM.
